These results are taken from patent publication US20250115598A1 (Anaxis Pharma Pty Ltd, priority 2021, published 2025).

In one assay the target is human RIPK3 (Homo sapiens (Human), UniProt Q9Y572). Kind of assay: KINOMEscan binding assay, human RIPK3. The note with it: Table 21. The method, boiled down: (§1)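 Active-site competition binding: DNA-tagged kinase (T7 phage fusion from BL21-derived E. coli lysate, or HEK-293-expressed) captured on immobilized-ligand beads, with bound kinase in the eluate quantified by qPCR. Compounds ran as 11-point 3-fold dilutions, 1% DMSO, top 30,000 nM for most. Kd came from a Hill fit (slope −1).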

Another assay deals with human RIPK1 (Homo sapiens (Human), UniProt Q13546). The experiment in a line: KINOMEscan binding assay, human RIPK1. The following applies: Table 21. The method, boiled down:
as §1

The target in another assay is endogenous MLKL in MDF (Mus musculus (Mouse), UniProt Q9D2Y4). The experiment in a line: Degradation assay: endogenous MLKL in MDF (western blot). The following applies: MDF cells, 24 h incubation with compound, MLKL adjusted for loading with GAPDH, normalized to DMSO only control, read-out: Degradation of endogenous MLKL in MDF (DC50 cell-based assay). The method, boiled down:
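MDF (seeded the day before) or U937 cells were treated 24 h at 37 °C, 10% CO2 with compound at 10, 2, 0.4, 0.08 and 0.016 μM final. Endogenous MLKL was quantified by western blot (anti-MLKL 3H1), normalized to GAPDH. Percent degradation was taken relative to DMSO control.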
On the technique in general: In western blotting, separated proteins are transferred to a membrane and probed.

pKd: −log10 of the molar value.

Chain of human RIPK3 (Q9Y572 whole entry, the tested form may be a part): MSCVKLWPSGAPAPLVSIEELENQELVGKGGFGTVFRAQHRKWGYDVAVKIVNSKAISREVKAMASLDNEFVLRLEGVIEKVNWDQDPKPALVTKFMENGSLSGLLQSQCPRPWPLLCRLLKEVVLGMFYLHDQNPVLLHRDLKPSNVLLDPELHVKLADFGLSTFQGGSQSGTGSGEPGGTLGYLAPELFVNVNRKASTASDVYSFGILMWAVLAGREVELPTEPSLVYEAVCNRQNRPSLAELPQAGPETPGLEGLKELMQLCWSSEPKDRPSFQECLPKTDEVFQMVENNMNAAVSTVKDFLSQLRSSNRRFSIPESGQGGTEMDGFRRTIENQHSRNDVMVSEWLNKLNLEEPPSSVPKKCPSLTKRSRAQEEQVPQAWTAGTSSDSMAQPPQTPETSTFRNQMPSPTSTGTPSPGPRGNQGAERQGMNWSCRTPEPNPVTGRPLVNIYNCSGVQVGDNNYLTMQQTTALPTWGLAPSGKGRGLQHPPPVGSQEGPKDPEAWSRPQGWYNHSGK
Chain of human RIPK1 (Q13546 whole entry): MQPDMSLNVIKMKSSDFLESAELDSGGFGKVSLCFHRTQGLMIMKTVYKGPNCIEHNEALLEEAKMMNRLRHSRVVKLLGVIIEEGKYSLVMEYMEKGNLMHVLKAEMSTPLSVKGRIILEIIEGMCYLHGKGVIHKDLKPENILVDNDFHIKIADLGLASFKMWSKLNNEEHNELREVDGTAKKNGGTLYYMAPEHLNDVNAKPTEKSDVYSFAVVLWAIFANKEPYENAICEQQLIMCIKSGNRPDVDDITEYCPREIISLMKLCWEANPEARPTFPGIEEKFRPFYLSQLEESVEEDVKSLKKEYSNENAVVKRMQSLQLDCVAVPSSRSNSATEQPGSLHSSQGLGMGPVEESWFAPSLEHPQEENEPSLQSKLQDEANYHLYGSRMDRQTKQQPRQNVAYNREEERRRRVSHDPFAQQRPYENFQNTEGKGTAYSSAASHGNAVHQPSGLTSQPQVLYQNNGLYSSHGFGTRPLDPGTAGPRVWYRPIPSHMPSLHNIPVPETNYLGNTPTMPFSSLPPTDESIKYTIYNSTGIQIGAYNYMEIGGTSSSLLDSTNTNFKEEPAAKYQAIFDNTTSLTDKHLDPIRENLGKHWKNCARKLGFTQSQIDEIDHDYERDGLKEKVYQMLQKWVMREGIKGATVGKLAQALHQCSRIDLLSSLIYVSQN
Chain of endogenous MLKL in MDF (Q9D2Y4 whole entry): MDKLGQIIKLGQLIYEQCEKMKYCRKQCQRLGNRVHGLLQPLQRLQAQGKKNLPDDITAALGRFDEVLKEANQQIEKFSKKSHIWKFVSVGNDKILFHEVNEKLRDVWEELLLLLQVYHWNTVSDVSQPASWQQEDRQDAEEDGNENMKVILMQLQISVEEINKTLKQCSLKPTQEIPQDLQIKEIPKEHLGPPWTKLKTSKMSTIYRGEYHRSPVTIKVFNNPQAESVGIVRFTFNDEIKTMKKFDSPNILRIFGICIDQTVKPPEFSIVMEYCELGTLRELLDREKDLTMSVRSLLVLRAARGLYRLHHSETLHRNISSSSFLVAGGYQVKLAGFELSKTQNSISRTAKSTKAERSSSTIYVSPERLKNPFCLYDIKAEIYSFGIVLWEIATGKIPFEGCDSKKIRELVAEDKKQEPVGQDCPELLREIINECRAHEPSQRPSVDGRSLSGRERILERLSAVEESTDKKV

In the case of `Nc1ncc(-c2cnn(C3CCOCC3)c2)c2[nH]nc(-c3ccc(NS(=O)(=O)C(F)F)c(OCc4cccc(Cl)c4)c3)c12` [Compound 131], the pKd at human RIPK3 and on human RIPK1 was less than 5.00 in each case.

In the case of `C[C@H](Oc1cc(-c2nn(C)c3c(-c4cnn(CCCCCCCOc5cccc6c5C(=O)N(C5CCC(=O)NC5=O)C6=O)c4)cnc(N)c23)ccc1NS(=O)(=O)C(F)F)c1ccc(F)cc1` (some centres unmarked) [Compound 1031, N-(4-{4-amino-7-[1-(7-{[2-(2,6-dioxopiperidin-3-yl)-1,3-dioxo-2,3-dihydro-1H-isoindol-4-yl]oxy}heptyl)-1H-pyrazol-4-yl]-1-methyl-1H-pyrazolo[4,3-c]pyridin-3-yl}-2-[(1 S)-1-(4-fluorophenyl)ethoxy]phenyl)-1,1-difluoromethanesulfonamide], the DC50 (usually the midpoint of the concentration-degradation curve) at endogenous MLKL in MDF is less than 1 µM.

For “N-(4-(4-amino-1-methyl-7-(1-(1,2,2-trimethylpiperidin-4-yl)-1H-pyrazol-4-yl)-1H-pyrazolo[4,3-c]pyridin-3-yl)-2-((S)-1-(4-fluorophenyl)ethoxy)phenyl)-1,1-difluoromethanesulfonamide [Compound 113]”, the pKd at human RIPK3 and on human RIPK1 was less than 5.00 in each case.
